Assay results published in ChEMBL document CHEMBL5236554 (J Med Chem, 2021).
Blank lines part the entries; values can stand above or below the molecule they belong to. Active and inactive are the calls of the source. The rule behind the calls is not given here. Square brackets hold non-standard residues; d marks the D form. Peptide text beside a SMILES is read from it. * marks the point of attachment. Boc = CC(C)(C)OC(=O)*

Columns and labels:
[1] = target: Neurolysin, mitochondrial (Rattus norvegicus, UniProt P42676); experiment: Activation of recombinant rat Neurolysin using QFS as substrate incubated for 10 mins
Chain of Neurolysin, mitochondrial (P42676 whole entry): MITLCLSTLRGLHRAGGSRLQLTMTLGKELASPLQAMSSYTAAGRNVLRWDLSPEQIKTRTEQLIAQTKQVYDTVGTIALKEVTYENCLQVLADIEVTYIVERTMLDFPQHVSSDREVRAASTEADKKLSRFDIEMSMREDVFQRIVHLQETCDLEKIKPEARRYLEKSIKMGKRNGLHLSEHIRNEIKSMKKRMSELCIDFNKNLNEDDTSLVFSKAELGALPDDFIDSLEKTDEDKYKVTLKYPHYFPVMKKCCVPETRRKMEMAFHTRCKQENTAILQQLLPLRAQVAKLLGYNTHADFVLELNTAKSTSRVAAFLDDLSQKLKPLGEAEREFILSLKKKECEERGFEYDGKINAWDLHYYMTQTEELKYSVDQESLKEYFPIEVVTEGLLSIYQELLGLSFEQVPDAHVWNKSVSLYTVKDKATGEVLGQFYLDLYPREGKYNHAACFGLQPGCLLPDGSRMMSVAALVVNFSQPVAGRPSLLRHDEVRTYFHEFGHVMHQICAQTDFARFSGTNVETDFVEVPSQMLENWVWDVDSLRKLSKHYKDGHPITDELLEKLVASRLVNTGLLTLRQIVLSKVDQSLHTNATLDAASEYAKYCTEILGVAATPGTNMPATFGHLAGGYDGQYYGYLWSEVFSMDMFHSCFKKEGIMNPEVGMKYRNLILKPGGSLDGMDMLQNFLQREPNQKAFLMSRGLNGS

[2] = Metabolic stability in mouse plasma assessed as half life measured upto 240 mins by LC-MS/MS analysis; assay type: ADME, cell-free
[3] = Metabolic stability in mouse brain homogenate assessed as half life measured upto 240 mins by LC-MS/MS analysis; assay type: ADME, tissue-based; details: 4 h
[4] = Permeability coefficient across apical to basolateral side in mouse BEND3 cells co-cultured with mouse primary astrocytes incubated for 120 mins by LC-MS/MS analysis; assay type: ADME, cell-based; details: bend3, 2 h
[5] = target: Thimet oligopeptidase (Homo sapiens) (UniProt P52888); experiment: Inhibition of recombinant human THOP catalytic activity using Mca-Pro-Leu-Gly-Pro-D-Lys(DNP)-OH as substrate
Chain of Thimet oligopeptidase (Homo sapiens) (P52888 whole entry): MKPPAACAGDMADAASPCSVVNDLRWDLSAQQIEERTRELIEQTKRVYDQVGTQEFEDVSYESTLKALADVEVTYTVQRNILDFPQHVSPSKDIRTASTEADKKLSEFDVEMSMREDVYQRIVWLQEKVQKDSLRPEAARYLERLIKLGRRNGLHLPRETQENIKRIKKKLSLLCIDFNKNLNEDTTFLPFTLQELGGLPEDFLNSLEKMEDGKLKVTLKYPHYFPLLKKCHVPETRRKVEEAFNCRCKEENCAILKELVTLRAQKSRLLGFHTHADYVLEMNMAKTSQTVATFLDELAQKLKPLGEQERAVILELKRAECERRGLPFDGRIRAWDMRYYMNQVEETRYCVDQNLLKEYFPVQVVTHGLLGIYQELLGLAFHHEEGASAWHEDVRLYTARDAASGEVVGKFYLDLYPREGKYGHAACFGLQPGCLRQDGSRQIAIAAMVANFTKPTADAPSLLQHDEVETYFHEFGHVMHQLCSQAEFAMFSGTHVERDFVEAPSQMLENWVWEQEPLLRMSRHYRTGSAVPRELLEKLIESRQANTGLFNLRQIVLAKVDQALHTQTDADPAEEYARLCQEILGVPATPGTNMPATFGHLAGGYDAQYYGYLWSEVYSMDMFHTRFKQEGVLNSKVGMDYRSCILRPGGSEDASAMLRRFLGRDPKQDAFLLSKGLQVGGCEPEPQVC

[6] = target: Neprilysin (Homo sapiens) (UniProt P08473); experiment: Inhibition of recombinant human NEP catalytic activity using Mca-Arg-Pro-Pro-Gly-Phe-Ser-Ala-Phe-Lys(Dnp)-OH as substrate
Chain of Neprilysin (Homo sapiens) (P08473 whole entry): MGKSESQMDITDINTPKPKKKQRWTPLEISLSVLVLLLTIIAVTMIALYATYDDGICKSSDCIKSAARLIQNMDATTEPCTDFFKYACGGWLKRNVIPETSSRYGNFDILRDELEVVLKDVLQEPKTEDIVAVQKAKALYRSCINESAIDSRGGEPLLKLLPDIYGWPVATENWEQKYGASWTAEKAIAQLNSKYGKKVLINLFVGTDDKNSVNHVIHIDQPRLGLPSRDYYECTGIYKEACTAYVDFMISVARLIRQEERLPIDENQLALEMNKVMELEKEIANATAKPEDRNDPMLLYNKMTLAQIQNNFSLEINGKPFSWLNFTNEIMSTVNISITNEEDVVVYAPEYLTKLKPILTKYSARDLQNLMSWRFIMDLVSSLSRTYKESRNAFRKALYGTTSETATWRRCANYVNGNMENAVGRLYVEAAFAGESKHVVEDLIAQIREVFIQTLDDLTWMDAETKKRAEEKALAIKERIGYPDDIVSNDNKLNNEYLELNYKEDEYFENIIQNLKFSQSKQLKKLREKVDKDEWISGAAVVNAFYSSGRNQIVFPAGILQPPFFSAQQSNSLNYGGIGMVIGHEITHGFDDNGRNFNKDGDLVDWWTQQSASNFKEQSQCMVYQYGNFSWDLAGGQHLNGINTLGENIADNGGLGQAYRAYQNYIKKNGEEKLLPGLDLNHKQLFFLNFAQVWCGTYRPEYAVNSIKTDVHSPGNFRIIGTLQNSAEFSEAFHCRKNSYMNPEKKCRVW

[7] = target: Angiotensin-converting enzyme 2 (Homo sapiens) (UniProt Q9BYF1); experiment: Inhibition of recombinant human ACE2 catalytic activity at 300 uM using Mca-Ala-Pro-Lys-(Dnp)-OH as substrate
Chain of Angiotensin-converting enzyme 2 (Homo sapiens) (Q9BYF1 18-805 limits assumed): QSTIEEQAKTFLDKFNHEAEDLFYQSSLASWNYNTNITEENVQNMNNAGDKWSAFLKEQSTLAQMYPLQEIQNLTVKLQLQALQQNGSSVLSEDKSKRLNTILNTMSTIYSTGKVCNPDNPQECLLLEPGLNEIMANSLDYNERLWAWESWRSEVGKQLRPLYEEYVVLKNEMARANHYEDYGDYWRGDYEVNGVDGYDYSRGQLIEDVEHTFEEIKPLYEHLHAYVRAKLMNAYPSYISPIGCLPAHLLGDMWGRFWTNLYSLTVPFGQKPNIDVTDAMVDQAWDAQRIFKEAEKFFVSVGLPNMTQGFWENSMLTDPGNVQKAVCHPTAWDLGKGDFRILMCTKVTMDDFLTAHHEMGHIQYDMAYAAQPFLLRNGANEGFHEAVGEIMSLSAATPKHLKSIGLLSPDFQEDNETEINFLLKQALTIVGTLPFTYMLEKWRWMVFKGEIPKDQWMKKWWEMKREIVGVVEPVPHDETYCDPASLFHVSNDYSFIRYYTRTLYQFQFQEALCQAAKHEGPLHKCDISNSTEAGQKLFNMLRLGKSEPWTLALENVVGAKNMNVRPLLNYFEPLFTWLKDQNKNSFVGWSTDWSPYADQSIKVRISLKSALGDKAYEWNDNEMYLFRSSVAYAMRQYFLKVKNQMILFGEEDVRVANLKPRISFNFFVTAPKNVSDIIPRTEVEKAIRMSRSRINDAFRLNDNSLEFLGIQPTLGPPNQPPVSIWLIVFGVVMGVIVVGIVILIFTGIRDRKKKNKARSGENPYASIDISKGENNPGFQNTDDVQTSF

[8] = target: Angiotensin-converting enzyme (Homo sapiens) (UniProt P12821); experiment: Inhibition of recombinant human ACE catalytic activity measured up to 150 uM
Chain of Angiotensin-converting enzyme (Homo sapiens) (P12821 whole entry): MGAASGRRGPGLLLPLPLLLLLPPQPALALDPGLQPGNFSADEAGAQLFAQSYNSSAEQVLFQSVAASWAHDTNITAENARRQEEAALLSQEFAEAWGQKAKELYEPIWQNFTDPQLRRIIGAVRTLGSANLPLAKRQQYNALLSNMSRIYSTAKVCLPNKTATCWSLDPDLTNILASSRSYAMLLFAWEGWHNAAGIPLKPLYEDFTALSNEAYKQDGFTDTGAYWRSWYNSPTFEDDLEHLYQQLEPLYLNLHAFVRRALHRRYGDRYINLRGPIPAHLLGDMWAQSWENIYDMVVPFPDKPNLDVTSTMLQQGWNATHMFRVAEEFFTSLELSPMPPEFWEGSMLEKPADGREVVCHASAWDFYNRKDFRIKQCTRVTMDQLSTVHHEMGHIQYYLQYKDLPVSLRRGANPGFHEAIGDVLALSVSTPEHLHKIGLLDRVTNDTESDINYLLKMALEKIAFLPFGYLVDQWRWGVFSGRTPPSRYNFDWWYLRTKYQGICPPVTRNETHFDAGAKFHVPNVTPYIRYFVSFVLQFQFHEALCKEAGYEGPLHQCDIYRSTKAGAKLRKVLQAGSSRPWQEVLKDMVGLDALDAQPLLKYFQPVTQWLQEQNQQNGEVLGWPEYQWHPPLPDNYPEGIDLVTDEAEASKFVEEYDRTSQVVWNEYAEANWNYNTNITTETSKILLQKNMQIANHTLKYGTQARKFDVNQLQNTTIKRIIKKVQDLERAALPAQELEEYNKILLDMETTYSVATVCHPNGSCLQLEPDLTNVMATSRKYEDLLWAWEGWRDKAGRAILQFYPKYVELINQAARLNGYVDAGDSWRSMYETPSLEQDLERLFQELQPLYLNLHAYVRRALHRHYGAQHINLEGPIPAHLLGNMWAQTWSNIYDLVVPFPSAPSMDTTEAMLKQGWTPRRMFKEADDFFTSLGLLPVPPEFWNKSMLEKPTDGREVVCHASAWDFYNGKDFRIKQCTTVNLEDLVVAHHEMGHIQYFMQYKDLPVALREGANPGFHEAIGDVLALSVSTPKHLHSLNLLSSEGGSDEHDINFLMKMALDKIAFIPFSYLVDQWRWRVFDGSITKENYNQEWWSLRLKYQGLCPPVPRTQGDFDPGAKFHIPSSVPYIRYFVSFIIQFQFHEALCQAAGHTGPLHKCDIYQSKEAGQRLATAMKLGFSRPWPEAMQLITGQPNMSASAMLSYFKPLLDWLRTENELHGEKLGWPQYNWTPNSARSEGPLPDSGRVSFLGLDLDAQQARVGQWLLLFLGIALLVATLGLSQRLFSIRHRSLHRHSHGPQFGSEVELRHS

Compound: N[C@@H](Cc1c[nH]cn1)C(=O)N[C@@H](Cc1ccccc1)C(=O)O (H-His-Phe-OH)
- EC50 ([1]; read-out: EC50): 74.5 µM

- EC50 [1]: Not Active
Compound: N[C@@H](Cc1ccc(O)cc1)C(=O)N[C@H](Cc1c[nH]cn1)C(=O)O

- EC50 [1]: Not Active
Compound: CC(C)(C)OC(=O)N[C@@H](Cc1ccc(O)cc1)C(=O)N[C@H](Cc1ccccc1)C(=O)O (Boc-Tyr-[dF]-OH)

Compound: N[C@@H](Cc1c[nH]cn1)C(=O)NCCc1ccc(F)cc1
- EC50 ([1]; read-out: EC50): 11.6 µM

- t1/2 ([2]; 4 h): 34.19 min
- t1/2 [3]: 1.03 min
- Kp [4]: 0.21 10^-3cm/min
Compound: N[C@@H](Cc1c[nH]cn1)C(=O)N[C@@H](Cc1ccc(O)cc1)C(=O)O (H-His-Tyr-OH)

- EC50 [1]: Not Active
Compound: CC(C)(C)OC(=O)N[C@@H](Cc1c[nH]cn1)C(=O)NCCc1c[nH]c2ccccc12

Compound: NC(Cc1c[nH]cn1)C(=O)NCc1cccc2cccnc12 (racemic)
- EC50 ([1]; read-out: EC50): 5.8 µM

Compound: O=C(CCc1c[nH]cn1)NCCc1cc2ccccc2[nH]1
- EC50 [1]: Not Active

Compound: N[C@@H](Cc1c[nH]cn1)C(=O)NCc1cccc2ccccc12
- half-life [2]: > 1000 min
- t1/2 [3]: 80.3 min
- Kp [4]: 1.09 10^-3cm/min
- inhibition [5]: inactive
- inhibition [6]: inactive
- inhibition [7]: inactive
- inhibition [8]: inactive
